Entries after “also recorded” stand apart in the source; their conditions may differ.
How the values were obtained:
ALuc16 [1] = assay: Circular dichroism (CD) measurement of metal cation-mixed ALuc16; settings: varying cation concentrations
Description: Circular dichroism (CD) measurement was further conducted for reasoning the cation-driven degradation of ALuc16 activities (FIG. 9). Samples were prepared by mixing varying concentrations of Pb(II) or Al(III) with column-purified and dialyzed ALuc16, and were measured with a CD spectrometer (JASCO, Japan) after preparation.

TPv2.4 = TPv2.4 (Homo sapiens, UniProt P42345); settings: for bioluminescence intensity with TPv2.4: lysate of rapamycin-stimulated COS-7 cells, substrate 0.1 μg/μL; for luminescence intensity sustainability: compared with native coelenterazine
Description: COS-7 cells were cultured in a 96-well plate, and the cells were transiently transfected with the pcDNA3.1(+) vector encoding TP2.4. After that, the cells were cultured for 2 days. After being stimulated with 10^−6 M rapamycin for 4 hours, the cells in each well were lysed with a cell lysis buffer (50 μl) for 20 minutes. After that, an aliquot of the lysate (10 μL) was transferred to a 96-well transparent-bottom plate. Separately, about 10 kinds of coelenterazine analogs (substrates, 25 μg) were dissolved in 25 μL of ethanol. The solution was further 10-fold diluted with an assay buffer (Promega) to prepare a solution having a final concentration of 0.1 μg/μL. The solution was named substrate solution. 50 μL of the substrate solution was simultaneously introduced into the lysate solution on the plate using a multipipette, and the plate was immediately moved into an image analyzer (LAS-4000, FujiFilm), followed by optical measurement every 5 minutes in a 30-second integration time mode.
The coelenterazine analogs subjected to the measurement in this research were 9 kinds from “Coelenterazine Sampler Kit” of Promokine, i.e., native coelenterazine (nCTZ), coelenterazine h (CTZ h), coelenterazine f (CTZ f), coelenterazine i (CTZ i), coelenterazine n (CTZ n), coelenterazine cp (CTZ-cp), coelenterazine hcp (CTZ hcp), coelenterazine fcp (CTZ fcp), and coelenterazine ip (CTZ ip).

OLuc = OLuc (Oplophorus gracilirostris, UniProt Q9GV45); settings: cited from earlier work
ALuc16 [2] = assay: Metal cation-driven optical intensities of ALuc16 (purified enzyme); assay type: biochemical; settings: metal cation-free Tris-HCl buffer (pH 8.2, 0.05 M), nCTZ
Description: The metal cation-driven optical properties were estimated with ALuc16 (FIG. 6). A metal cation-free sample of ALuc16 was prepared beforehand as follows: we first generated a DNA construct of ALuc16 carrying a Strep-II tag at the C-terminus via PCR. The construct was then cloned into a pOPTHM vector (providing a cleavable N-terminal His6-MBP tag), and expressed in the bacterial strain Shuffle T7 Express (New England Biolabs) with 0.3 mM IPTG induction. […] The lysate was centrifuged at 18,000 rpm for 40 minutes, and then the supernatant was passed over a 5 mL HisTrap HP column (GE Healthcare). […] The eluted sample was dialyzed to a metal-cation-free Tris-HCl buffer (0.05 M, pH 8.2) at 4° C. for 24 hours, and finally adjusted to a concentration of 1 mg/ml by dilution. […] Meanwhile, the corresponding substrate solution carrying nCTZ (Promega) was diluted 100-fold with the cation-free Tris-HCl buffer (Solution B). 50 μL of Solution B was simultaneously injected into Solution A in the 96-well plate with a multichannel micropipette (Gilson). The microplate was immediately moved to an image analyzer (LAS-4000, FujiFilm) equipped with a cooled charge-coupled device (CCD) camera, and the optical intensities were simultaneously estimated in a precision mode. The measurements were conducted in triplicate (n=3). The optical images were analyzed with Multi Gauge V3.2 (FujiFilm). […] The experiment was conducted by the same method as that of FIG. 6. In the inset, the optical image taken with LAS-4000 (FujiFilm) is shown.

Fridericia luciferase = settings: cited from earlier work
ALuc16 [3] = assay: Cation-driven long-term stability of optical intensities of ALuc16; assay type: biochemical; settings: 60 minutes after substrate injection
Description: The long-term stability of optical intensities was estimated by the same method as that of FIG. 6(A) (FIG. 8(A)). The microplate was placed in the chamber of LAS-4000, and the optical intensities were monitored every 5 minutes, after substrate injection, for a duration of 60 minutes.

[4] = Luminescence activity of novel artificial bioluminescent enzymes (COS-7 cell lysate); assay type: biochemical, African green monkey; settings: COS-7 lysate, native coelenterazine
Description: African green monkey kidney-derived COS-7 cells were cultured using a 96-well microplate. The COS-7 cells were grown until occupying 90% of the bottom-surface area of the culture plate, and, as shown in FIG. 19 and FIG. 20, were each transiently transfected with a pcDNA 3.1(+) vector (Invitrogen) encoding each luminescent enzyme with a lipofection reagent (TransIT-LT1, Mirus). After that, the cells were further cultured for about 1 day. After the culture, cell lysates were prepared using a cell lysis agent (Lysis buffer, Promega), and 5 μL each of the cell lysates was taken from each well and transferred to a 96-well microplate for measurement. An assay buffer (50 μL) containing native coelenterazine was simultaneously added to each well using a multichannel pipette. Immediately after the addition of the assay buffer, the microplate was moved into the black box of an image analyzer (LAS-4000, FujiFilm), and luminescence images were measured with a CCD camera (FIG. 19 and FIG. 20).

[5] = Proton-dependent optical intensities and optical stability of ALucs (COS-7 cell lysate); assay type: biochemical, African green monkey; settings: for elevation of optical intensities at pH 7 as compared to pH 6: COS-7 lysate, nCTZ; for intensities as share of the initial intensities 20 minutes after substrate injection: pH 9, coelenterazine analog
Description: The proton-driven optical intensities of ALucs were calculated to help elucidate the proton-bioluminescence relationship (FIG. 4). […] The cells were cultured and lysed by the same method as that of FIG. 2(B). Then, 10 μL of the lysates in the plate were simultaneously mixed with 40 µL of the substrate solution, which was prepared by mixing a native coelenterazine (nCTZ) stock (FIG. 4(B)) with an aliquot of the universal buffer with the pH ranging from 4 to 9 (final concentration of the substrate: 0.1 mg/ml). Immediately after the substrate injection, the plate was moved into an image analyzer (LAS-4000, FujiFilm), and relative optical intensities were integrated for 30 seconds. The time course of the intensities was estimated every 5 minutes for 20 minutes (FIG. 4(D)).

Chain of OLuc (Q9GV45 28-196): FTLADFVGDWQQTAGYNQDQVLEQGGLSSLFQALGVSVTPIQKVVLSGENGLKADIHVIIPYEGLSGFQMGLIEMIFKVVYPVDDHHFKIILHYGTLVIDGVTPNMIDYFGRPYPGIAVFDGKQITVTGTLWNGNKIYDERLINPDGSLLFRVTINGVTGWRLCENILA
Chain of TPv2.4 (P42345 with tags, fused parts or gaps): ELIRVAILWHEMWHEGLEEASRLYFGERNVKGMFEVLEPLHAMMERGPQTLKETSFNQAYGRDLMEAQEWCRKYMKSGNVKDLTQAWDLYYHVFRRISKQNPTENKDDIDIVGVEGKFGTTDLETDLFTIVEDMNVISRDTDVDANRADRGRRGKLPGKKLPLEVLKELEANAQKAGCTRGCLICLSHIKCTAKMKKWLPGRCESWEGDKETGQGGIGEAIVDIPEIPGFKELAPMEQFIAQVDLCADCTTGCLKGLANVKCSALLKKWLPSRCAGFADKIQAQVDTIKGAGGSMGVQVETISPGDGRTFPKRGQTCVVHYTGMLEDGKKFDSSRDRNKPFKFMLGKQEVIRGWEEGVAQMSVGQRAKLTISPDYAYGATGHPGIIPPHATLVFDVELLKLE

[Cl][Al]([Cl])[Cl] [Al(III)]
effect on structure of ALuc16 (CD spectra, 222 nm) (ALuc16 [1]): α-helical portion is gradually decreased; also recorded: destroy the tertiary structure of ALuc16; also recorded: the structure of ALuc16 is denatured

Oc1ccc(Cc2nc3c(CC4CCCC4)nc(-c4ccc(O)cc4)cn3c2O)cc1 [CTZ cp, coelenterazine cp]
bioluminescence intensity with TPv2.4 (TPv2.4): weak luminescence intensities

Oc1ccc(-c2cn3c(O)c(Cc4ccc(F)cc4)nc3c(CC3CCCC3)n2)cc1 [CTZ fcp, coelenterazine fcp]
bioluminescence intensity with TPv2.4 (TPv2.4): weak luminescence intensities

Oc1ccc(-c2cn3c(O)c(Cc4ccccc4)nc3c(CC3CCCC3)n2)cc1 [CTZ hcp, coelenterazine hcp]
bioluminescence intensity with TPv2.4 (TPv2.4): weak luminescence intensities

O=c1c(Cc2ccc(I)cc2)nc2c(Cc3ccccc3)[nH]c(-c3ccc(O)cc3)cn1-2 [CTZ i, coelenterazine i]
luminescence half-life from substrate injection (TPv2.4): about 15 minutes
luminescence intensity sustainability (TPv2.4): longer than that of native coelenterazine

[Cl][Cd][Cl] [Cd(II)]
effect on optical intensity of OLuc (OLuc): inhibited the optical intensity

[Cl-].[Cl-].[Co+2] [Co(II)]
effect on optical intensities (activities) of ALuc16 (ALuc16 [2]): suppress

[Cl][Cu][Cl] [Cu(II)]
effect on optical intensity of OLuc (OLuc): inhibited the optical intensity
effect on optical intensities (activities) of ALuc16 (ALuc16 [2]): suppress

[K+] [K^+]
effect on optical intensities (activities) of ALuc16 (ALuc16 [2]): little effect

[Li+] [Li^+]
effect on optical intensities (activities) of ALuc16 (ALuc16 [2]): little effect

[Cl-].[Cl-].[Mg+2] [Mg(II)]
effect on activities of Fridericia luciferase (Fridericia luciferase): elevate
effect on long-term stability of bioluminescence intensities (ALuc16 [3]): seldom influences the long-term stability

[Cl][Mn][Cl] [Mn(II)]
effect on activities of Fridericia luciferase (Fridericia luciferase): elevate
effect on optical intensities (activities) of ALuc16 (ALuc16 [2]): boosting effect with Mn(II) was not observed

N [NH4^+]
effect on optical intensities (activities) of ALuc16 (ALuc16 [2]): little effect

[Na+] [Na^+]
effect on optical intensities (activities) of ALuc16 (ALuc16 [2]): little effect

[Cl-].[Cl-].[Zn+2] [Zn(II)]
effect on optical intensity of OLuc (OLuc): inhibited the optical intensity
effect on optical intensities (activities) of ALuc16 (ALuc16 [2]): suppress

Cr(VI)
elevation of ALuc16 activities / optical intensities (ALuc16 [2]): about 2 times

coelenterazine f [CTZ f]
bioluminescence intensity with TPv2.4 (TPv2.4): strongest bioluminescence intensities

coelenterazine h [CTZ h]
bioluminescence intensity with TPv2.4 (TPv2.4): strongest bioluminescence intensities

coelenterazine ip [CTZ ip]
bioluminescence intensity with TPv2.4 (TPv2.4): weak luminescence intensities

coelenterazine n [CTZ n]
initial luminescence intensity retained (TPv2.4; 20 minutes after substrate injection): about 60%
luminescence intensity sustainability (TPv2.4): longer than that of native coelenterazine

native coelenterazine [nCTZ]
bioluminescence intensity with TPv2.4 (TPv2.4): strongest bioluminescence intensities

B1: ALuc49: artificial luciferase, SEQ ID NO: 9 (protein)
chain: MMGIKVLFALVCLALVQAKPTEDEDEDDIVDVVGNFWAIGVDNDRDFTISADRGKLPGKKLPKEVLIEIEANAKKAGCTRGCLICLSKIKCTAKMKKWLPGRCHSYEGDKDTGQGGIGEPIVDAPEIPGFKDLTPMEQFIAQVDLCADCTTGCLKGLANVKCSALLKKWLPDRCASFADKIQKEVDYIKGLAGS
luminescence intensities as compared to conventional ALucs (e.g., ALuc16 and ALuc30) [4]: even stronger luminescence intensities

B2: ALuc50: artificial luciferase, SEQ ID NO: 10 (protein)
chain: MMGIKVLFALVCLALVQAKPTEDEDEDDIVDVVGNFWAIGVDNDRDFTISADRGKLPGKKLPKEVLIEIEANAKKAGCTRGCLICLSKIKCTAKMKKWLPGRCHSYEGDKDTGQGGIGEPIVDAPEIPGFKDLTPMEQFIAQVDLCADCTTGCLKGLANVKCSALLKKWLPDRCASFADKIQKEVDFIKGLAGS
luminescence intensities as compared to conventional ALucs (e.g., ALuc16 and ALuc30) [4]: even stronger luminescence intensities

B3: ALuc46: artificial luciferase, SEQ ID NO: 6 (protein)
chain: MMGIKVLFALVCLALVQAKPTEDEDEDDIVDVVGNFWAIGVDNDRDFTISADRGKLPGKKLPKEVLIEIEANAKKAGCTRGCLICLSKIKCTAKMKKWLPGRCHSYEGDKDTGQGGIGEPIVDAPEIPGFKDLTPMEQFIAQVDLCADCTTGCLKGLANVKCSALLKKWLPDRCASFADKIQSEVATIKGLAGS
luminescence intensities as compared to conventional ALucs (e.g., ALuc16 and ALuc30) [4]: relatively low luminescence intensities

B4: ALuc41: artificial luciferase, SEQ ID NO: 2 (protein)
chain: MMGIKVLFALVCLALVQAKPTEDEDEDDIVDVVGNFWAIGVDNDRDFTISADRGKLPGKKLPKEVLIEIEANAKKAGCTRGCLICLSKIKCTAKMKKWLPGRCHSYEGDKDTGQGGIGEPIVDAPEIPGFKDLTPMEQFIAQVDLCADCTTGCLKGLANVKCSALLKKWLPDRCASFADKIQKEVDTIKGLAGS
luminescence intensities as compared to conventional ALucs (e.g., ALuc16 and ALuc30) [4]: relatively low luminescence intensities

B5: ALuc47: artificial luciferase, SEQ ID NO: 7 (protein)
chain: MMGIKVLFALVCLALVQAKPTEDEDEDDIVDVVGNFWAIGVDNDRDFTISADRGKLPGKKLPKEVLIEIEANAKKAGCTRGCLICLSKIKCTAKMKKWLPGRCHSYEGDKDTGQGGIGEPIVDAPEIPGFKDLTPMEQFIAQVDLCADCTTGCLKGLANVKCSALLKKWLPDRCASFADKIQKEVGTIKGLLGS
luminescence intensities as compared to conventional ALucs (e.g., ALuc16 and ALuc30) [4]: relatively low luminescence intensities

B6: ALuc23: conventional artificial luciferase from the inventor's previous research, SEQ ID NO: 32 (protein)
chain: MMGIKVLFALICFALVQANPTENKDDIDIVGVEGKFGTTDLETDLFTIVEDMNVISRDTDVDANRADRGRRGKLPGKKLPLEVLKELEANAQKAGCTRGCLICLSHIKCTAKMKKWLPGRCESWEGDKETGQGGIGEAIVDIPEIPGFKELAPMEQFIAQVDLCADCTTGCLKGLANVKCSALLKKWLPSRCAGFADKIQAQVDTIKGAGGS
modifications: Synthetic Sequence - ALuc23
elevation of optical intensities at pH 7 as compared to pH 6 [5]: about 5 fold
intensities as share of the initial intensities 20 minutes after substrate injection [5]: 41%

B7: ALuc34: conventional artificial luciferase, SEQ ID NO: 35 (protein)
chain: MMGIKVLFALICFALVQANMMDYKDDDDKVGVEGKFGTTDLETDLFTIVEDMNVISRDTDVDANRADRGRRGKLPGKKLPLEVLKELEANAQKAGCTRGCLICLSHIKCTAKMKKWLPGRCESWEGDKETGQGGIGEAIVDIPEIPGFKELAPMEQFIAQVDLCADCTTGCLKGLANVKCSALLKKWLPSRCAGFADKIQAQVDTIKGAGGS
modifications: Synthetic Sequence - ALuc34
elevation of optical intensities at pH 7 as compared to pH 6 [5]: about 5 fold
intensities as share of the initial intensities 20 minutes after substrate injection [5]: 60%
